Test results: US20090137499A1, “BENZYLPHENYL GLUCOPYRANOSIDE DERIVATIVE” (priority 2006, published 2009)

molecular target: T1, human SGLT1 (Homo sapiens, UniProt P13866); assay: Determination of SGLT1 inhibiting activity using human SGLT1 expressing cell ([14C]-α-methyl-D-glucopyranoside uptake); format: cell-based; conditions: HEK-SGLT1 cells, 1 mM [14C]-α-methyl-D-glucopyranoside, 37° C., 30 min
T1 construct: expressed in transfected cells
T1 sequence (P13866 1-664): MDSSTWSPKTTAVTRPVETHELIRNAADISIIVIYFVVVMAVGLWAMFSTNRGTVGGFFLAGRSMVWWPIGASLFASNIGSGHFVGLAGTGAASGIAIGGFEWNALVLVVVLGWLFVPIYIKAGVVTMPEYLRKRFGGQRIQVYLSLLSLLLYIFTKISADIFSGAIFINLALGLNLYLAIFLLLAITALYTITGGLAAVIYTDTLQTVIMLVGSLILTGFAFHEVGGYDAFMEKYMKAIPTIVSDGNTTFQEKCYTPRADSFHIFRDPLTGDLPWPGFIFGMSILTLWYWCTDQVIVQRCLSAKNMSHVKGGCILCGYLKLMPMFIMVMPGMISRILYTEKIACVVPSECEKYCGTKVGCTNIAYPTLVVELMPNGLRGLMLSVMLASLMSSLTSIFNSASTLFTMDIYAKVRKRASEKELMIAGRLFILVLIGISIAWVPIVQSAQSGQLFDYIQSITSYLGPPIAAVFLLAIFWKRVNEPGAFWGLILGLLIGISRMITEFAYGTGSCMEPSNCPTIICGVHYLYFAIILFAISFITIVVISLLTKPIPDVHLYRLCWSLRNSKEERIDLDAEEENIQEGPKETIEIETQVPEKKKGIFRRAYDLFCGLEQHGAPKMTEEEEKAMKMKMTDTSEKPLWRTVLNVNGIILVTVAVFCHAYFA
Protocol: Determination of SGLT1 Inhibiting Activity Using Human SGLT1 Expressing Cell
1) Preparation of Vector Expressing Human SGLT1 cDNA in Animal Cell
Amplification was performed by PCR using human SGLT1 cDNA clone (Origene: Clone Number, TC119918; GenBank accession number, NM 000343) as a template. The sense oligonucleotide primer for PCR was 5′-[…]-3′ (Primer 1: SEQ ID NO: 1 in the sequence listing),
and the antisense oligonucleotide primer was 5′-[…]-3′ (Primer 2: SEQ ID NO: 2 in the sequence listing).
The PCR product was subjected to agarose electrophoresis, then a target DNA fragment was recovered from a single band corresponding to 2013 bases, digested with restriction enzymes HindIII and XhoI, and introduced into the HindIII/XhoI site of vector pCMV-Script (Stratagene) to obtain SGLT1 expressing plasmid pCMV-SGLT1. A HindIII/XhoI fragment was excised from pCMV-SGLT1 and introduced into the BamHI/XhoI site of pENTR1A (Gateway, Invitrogen) to prepare pENTR-SGLT1. Retrovirus vector pLPCX (Clontech) into which Gateway Vector Conversion System Cassette A (Invitrogen) was introduced was used as the destination plasmid to prepare SGLT1 expressing retrovirus vector pLPCX-SGLT1.
2) Establishment of Human SGLT1 Expressing Cell
The retrovirus pLPCX-SGLT1 obtained in 1) was transfected into integrin αvβ3 expressing HEK-293 cells and, the cells were treated with antibiotic G418 (brand name, Geneticin: Invitrogen) and puromycin (Clontech) to obtain HEK-SGLT1 cells stably expressing the target vector having resistance. The stably expressing cells were cultured and maintained in DMEM medium containing […] G418, […] puromycin, 3 mM KGT-1075, and 10% FBS.
3) Determination of SGLT1 Inhibiting Activity
HEK-SGLT1 cells were suspended at a density of 10^6 cells/mL in DMEM medium containing […] G418, 1 mg/ml puromycin, and 10% FBS, and 100 μL was seeded in each well of a type 1 collagen-coated 96-well culture plate (Corning). On the following day, the medium was replaced with a sugar uptake buffer (10 mM HEPES [pH 7.5], 5 mM Tris-HCl [pH 7.5], 140 mM NaCl, 2 mM KCl, 1 mM CaCl2, 1 mM MgCl2), and the cells were cultured with 1 mM [^14C]-α-methyl-D-glucopyranoside (0.1 mCi) and the test compound at 37° C. for 30 min and then washed 3 times with a washing buffer (10 mM HEPES [pH 7.5], 5 mM Tris-HCl [pH 7.5], 140 mM choline chloride, 2 mM KCl, 1 mM CaCl2, 1 mM MgCl2). 100 μL of liquid scintillation cocktail (brand name, Supermix: Perkin-Elmer) was added to each well of the 96-well plate and stirred for 10 min, and then radioactivity was determined with micro β (Perkin-Elmer), a type of liquid scintillation counter. The value as the sugar uptake activity was obtained by deducting the radioactivity in the presence of an excess amount of an SGLT1 inhibiting compound as the background from each measured value, the inhibition rate (%) was calculated from the control sugar uptake activity obtained without using a test compound and the sugar uptake activity obtained using a test compound having a predetermined the concentration, and concentrations of the test compound at which the sugar uptake activity was inhibited by 50% were assessed.

Row | Structure (SMILES) | IC50 [nM]
1 | COc1ccc(Cc2c(OC)cc(CO)cc2O[C@@H]2O[C@H]([C@@H](C)O)[C@@H](O)[C@H](O)[C@H]2O)cc1 [Example 83, 5-Hydroxymethyl-3-methoxy-2-(4-methoxybenzyl)phenyl 7-deoxy-D-glycero-β-D-gluco-heptopyranoside] | 142
2 | COc1ccc(Cc2c(F)cc(CO)cc2O[C@@H]2O[C@H]([C@@H](C)O)[C@@H](O)[C@H](O)[C@H]2O)cc1 [Example 84, 3-Fluoro-5-hydroxymethyl-2-(4-methoxybenzyl)phenyl 7-deoxy-D-glycero-β-D-gluco-heptopyranoside] | 31
3 | C[C@@H](O)[C@H]1O[C@@H](Oc2cc(CO)cc(F)c2Cc2ccc(C3CC3)cc2)[C@H](O)[C@@H](O)[C@@H]1O [Example 88, 2-(4-Cyclopropylbenzyl)-3-fluoro-5-hydroxymethylphenyl 7-deoxy-D-glycero-β-D-gluco-heptopyranoside] | 51
4 | CCc1ccc(Cc2c(C)cc(CO)cc2O[C@@H]2O[C@H]([C@@H](C)O)[C@@H](O)[C@H](O)[C@H]2O)cc1 [Example 89, 2-(4-Ethylbenzyl)-5-hydroxymethyl-3-methylphenyl 7-deoxy-D-glycero-β-D-gluco-heptopyranoside] | 81
5 | CCOc1ccc(Cc2ccc(CO)cc2O[C@@H]2O[C@H]([C@@H](C)O)[C@@H](O)[C@H](O)[C@H]2O)cc1 [Example 93, 2-(4-Ethoxybenzyl)-5-hydroxymethylphenyl 7-deoxy-D-glycero-β-D-gluco-heptapyranoside] | 430
6 | COc1ccc(Cc2c(C)cc(CO)cc2O[C@@H]2O[C@H]([C@@H](C)O)[C@@H](O)[C@H](O)[C@H]2O)cc1 [Example 94, 5-Hydroxymethyl-2-(4-methoxybenzyl)-3-methylphenyl 7-deoxy-D-glycero-β-D-gluco-heptopyranoside] | 37
7 | C[C@@H](O)[C@H]1O[C@@H](Oc2cc(CO)cc(Cl)c2Cc2ccc(OC3CC3)cc2)[C@H](O)[C@@H](O)[C@@H]1O [Example 95, 3-Chloro-2-(4-cyclopropoxybenzyl)-5-hydroxymethyl-phenyl 7-deoxy-D-glycero-β-D-gluco-heptopyranoside] | 82

Now from value to compound:

Row | IC50 [nM] | Structure (SMILES)
8 | 77 | Cc1cc(CO)cc(O[C@@H]2O[C@H]([C@@H](C)O)[C@@H](O)[C@H](O)[C@H]2O)c1Cc1ccc(OC2CC2)cc1 [Example 96, 2-(4-Cyclopropoxybenzyl)-5-hydroxymethyl-3-methyl-phenyl 7-deoxy-D-glycero-β-D-gluco-heptopyranoside]
9 | 52 | Cc1ccc(Cc2c(F)cc(CO)cc2O[C@@H]2O[C@H]([C@@H](C)O)[C@@H](O)[C@H](O)[C@H]2O)cc1 [Example 97, 3-Fluoro-5-hydroxymethyl-2-(4-methylbenzyl)phenyl 7-deoxy-D-glycero-β-D-gluco-heptopyranoside]
10 | 180 | Cc1ccc(Cc2ccc(CO)cc2O[C@@H]2O[C@H]([C@@H](C)O)[C@@H](O)[C@H](O)[C@H]2O)cc1 [Example 98, 5-Hydroxymethyl-2-(4-methylbenzyl)phenyl 7-deoxy-D-glycero-β-D-gluco-heptapyranoside]
11 | 168 | C=Cc1cc(CO)cc(O[C@@H]2O[C@H]([C@@H](C)O)[C@@H](O)[C@H](O)[C@H]2O)c1Cc1ccc(OC)cc1 [Example 101, 5-Hydroxymethyl-2-(4-methoxybenzyl)-3-vinyl-phenyl 7-deoxy-D-glycero-β-D-gluco-heptopyranoside]
